Data published in ChEMBL document CHEMBL6153138, “Discovery of Novel Aromatic Urea-Imidazole Salt Derivatives for Cancer Therapy via Targeting ERK1/2” (J Med Chem, 2025).
Calls of active or inactive are those of the source. The rule behind the calls is not given here.

Tests used:
MCF7 [1] = experiment: Upregulation of caspase3 protein expression in human MCF-7 cells at 1 uM incubated for 6 hrs in presence of chloroquine by Western blot analysis; format: functional, cell-based
MCF7 [2] = experiment: Induction of autophagy in human MCF7 cells assessed as increase in acidic vesicular organelles at 0.5 to 2 uM by Acridine orange staining based analysis; format: functional, cell-based; conditions: dose 0.5-2 µM
4T1 [3] = experiment: Antitumor activity against mouse 4T1 cells implanted in female BALB/c mouse model assessed as reduction in number of PCNA-positive proliferative cells at 25 to 50 mg/kg, po qd by immunohistochemical analysis; format: functional, organism-based; conditions: dose 25-50 mg/kg
[4] = Toxicity in female BALB/c mouse assessed as effect on heart at 25 to 50 mg/kg, po qd measured after 18 days by H and E staining based analysis; format: organism-based; conditions: in vivo, 432 h, dose 25-50 mg/kg, time 18 day
MCF7 [5] = experiment: Induction of apoptosis in human MCF7 cells assessed as late apoptotic cells at 0.5 uM incubated for 48 hrs by Annexin V/FITC and PI staining based flow cytometry analysis (reference value: 2.5%); format: functional
4T1 [6] = experiment: Antitumor activity against mouse 4T1 cells implanted in female BALB/c mouse model assessed as increase in ERK1/2 phosphorylation at 50 mg/kg, po qd measured from 12 to 24 hrs by immunohistochemical analysis; format: functional, organism-based; conditions: time 12-24 hrs
MCF7 [7] = experiment: Induction of autophagy in human MCF7 cells assessed as increase in AMPK phosphorylation level at 0.5 to 2 uM incubated for 48 hrs by Western blotting analysis; format: functional, cell-based; conditions: dose 0.5-2 µM
[8] = Oral availability in Sprague-Dawley rat at 10 mg/kg by LC-MS/MS analysis; format: ADME, organism-based; conditions: in vivo
MCF7 [9] = experiment: Induction of apoptosis in human MCF7 cells assessed as late apoptotic cells at 2 uM incubated for 48 hrs by Annexin V/FITC and PI staining based flow cytometry analysis (reference value: 2.5%); format: functional
4T1-Luc = experiment: Anti-metastatic activity in mouse 4T1-Luc cells assessed as reduction in disruption of cell structure at 25 to 50 mg/kg, po measured after 20 days by H and E staining based analysis; format: functional, organism-based; conditions: dose 25-50 mg/kg, time 20.0 day
MCF7 [10] = experiment: Induction of autophagy in human MCF7 cells assessed as increase in MDC positive cells at 0.5 to 2 uM by MDC staining based microscopic analysis; format: functional, cell-based; conditions: dose 0.5-2 µM
4T1 [11] = experiment: Antitumor activity against mouse 4T1 cells implanted in female BALB/c mouse model assessed as reduction in tumor volume at 50 mg/kg, po qd measured for 18 days in presence of chloroquine; format: functional, organism-based; conditions: time 18.0 day
4T1 [12] = experiment: Antitumor activity against mouse 4T1 cells implanted in female BALB/c mouse model assessed as reduction in c-Myc phosphorylation level at 50 mg/kg, po qd by immunohistochemical analysis; format: functional, organism-based
[13] = Toxicity in female BALB/c mouse assessed as effect on heart at 50 mg/kg, po qd measured after 18 days in presence of chloroquine by H and E staining based analysis; format: organism-based; conditions: in vivo, 432 h, time 18 day
MCF7 [14] = experiment: Antiproliferative activity against human MCF7 cells harbouring ERK2 knockout incubated for 48 hrs by CCK-8 method; format: functional, cell-based
MCF7 [15] = experiment: Upregulation of E-cadherin expression in human MCF7 cells at 0.5 to 2 uM; format: functional, cell-based; conditions: dose 0.5-2 µM
MCF7 [16] = experiment: Effect on MEK1/2 phosphorylation expression in human MCF7 cells at 0.5 to 2 uM measured after 30 mins to 4 hrs by Western blot analysis; format: functional, cell-based; conditions: dose 0.5-2 µM, time 30-240 min
MCF7 [17] = experiment: Induction of autophagic flux in human MCF7 cells assessed as colocalization of LC3B at 1 uM incubated for 48 hrs in presence of chloroquine by immunofluorescence analysis; format: functional, cell-based
[18] = Toxicity in female BALB/c mouse assessed as effect ALP level in serum at 25 to 50 mg/kg, po qd measured after 18 days by biochemical analysis; format: organism-based; conditions: in vivo, 432 h, dose 25-50 mg/kg, time 18 day
MCF7 [19] = experiment: Induction of apoptosis in human MCF7 cells assessed as increase in Bax/Bcl-2 ratio at 0.5 to 2 uM by Western blot analysis; format: functional, cell-based; conditions: dose 0.5-2 µM
[20] = AUC (0 to t) in Sprague-Dawley rat at 1 mg/kg, iv by LC-MS/MS analysis; format: ADME, organism-based; conditions: in vivo
4T1 [21] = experiment: Antitumor activity against mouse 4T1 cells implanted in female BALB/c mouse model assessed as increase in tumor cell necrosis at 50 mg/kg, po qd measured for 18 days in presence of chloroquine; format: functional, organism-based; conditions: time 18.0 day
[22] = Toxicity in female BALB/c mouse assessed as effect on tumor at 50 mg/kg, po qd measured after 18 days in presence of chloroquine by H and E staining based analysis; format: organism-based; conditions: in vivo, 432 h, time 18 day
MCF7 [23] = experiment: Inhibition of cell invasion in human MCF7 cells at incubated for 48 hrs by crystal violet staining based assay; format: functional; conditions: dose 0.5-2 µM
4T1 [24] = experiment: Antitumor activity against mouse 4T1 cells implanted in female BALB/c mouse model assessed as increase in LC3B expression at 50 mg/kg, po in presence of chloroquine by immunohistochemical analysis; format: functional, organism-based
MCF7 [25] = experiment: Induction of apoptosis in human MCF7 cells assessed as early apoptotic cells at 1 uM incubated for 48 hrs in presence of chloroquine by Annexin V/FITC and PI staining based flow cytometry analysis (reference value: 8.72%); format: functional
MCF7 [26] = experiment: Induction of apoptosis in human MCF7 cells assessed as early apoptotic cells at 1 uM incubated for 48 hrs by Annexin V/FITC and PI staining based flow cytometry analysis (reference value: 1.1%); format: functional
[27] = AUC (0 to t) in Sprague-Dawley rat at 10 mg/kg, po by LC-MS/MS analysis; format: ADME, organism-based; conditions: in vivo
MCF7 [28] = experiment: Induction of autophagic flux in human MCF7 cells assessed as appearance of multi membrane structure at 0.5 to 2 uM by TEM based analysis; format: functional, cell-based; conditions: dose 0.5-2 µM
MCF7 [29] = experiment: Inhibition of colony formation in human MCF7 cells harbouring ERK2 knockout at 1 uM incubated for 48 hrs by crystal violet staining based microscopic analysis; format: functional, cell-based
[30] = Cmax in Sprague-Dawley rat at 1 mg/kg, iv by LC-MS/MS analysis; format: ADME, organism-based; conditions: in vivo
MCF7 [31] = experiment: Inhibition of proliferation in human MCF7 cells at 0.5 to 2 uM incubated for 48 hrs by EdU incorporation assay; format: functional, cell-based; conditions: dose 0.5-2 µM
4T1 [32] = experiment: Antitumor activity against mouse 4T1 cells implanted in female BALB/c mouse model assessed as tumor growth inhibition at 50 mg/kg, po qd measured for 18 days relative to control; format: functional; conditions: 4T1, 432 h, time 18 day, read-out: TGI
[33] = molecular target: Ribosomal protein S6 kinase alpha-1 (Homo sapiens, UniProt Q15418); experiment: Inhibition of RSK1 (unknown origin) incubated for 60 mins by luminescence based ADP-Glo kinase assay
Ribosomal protein S6 kinase alpha-1, sequence (Q15418 whole entry): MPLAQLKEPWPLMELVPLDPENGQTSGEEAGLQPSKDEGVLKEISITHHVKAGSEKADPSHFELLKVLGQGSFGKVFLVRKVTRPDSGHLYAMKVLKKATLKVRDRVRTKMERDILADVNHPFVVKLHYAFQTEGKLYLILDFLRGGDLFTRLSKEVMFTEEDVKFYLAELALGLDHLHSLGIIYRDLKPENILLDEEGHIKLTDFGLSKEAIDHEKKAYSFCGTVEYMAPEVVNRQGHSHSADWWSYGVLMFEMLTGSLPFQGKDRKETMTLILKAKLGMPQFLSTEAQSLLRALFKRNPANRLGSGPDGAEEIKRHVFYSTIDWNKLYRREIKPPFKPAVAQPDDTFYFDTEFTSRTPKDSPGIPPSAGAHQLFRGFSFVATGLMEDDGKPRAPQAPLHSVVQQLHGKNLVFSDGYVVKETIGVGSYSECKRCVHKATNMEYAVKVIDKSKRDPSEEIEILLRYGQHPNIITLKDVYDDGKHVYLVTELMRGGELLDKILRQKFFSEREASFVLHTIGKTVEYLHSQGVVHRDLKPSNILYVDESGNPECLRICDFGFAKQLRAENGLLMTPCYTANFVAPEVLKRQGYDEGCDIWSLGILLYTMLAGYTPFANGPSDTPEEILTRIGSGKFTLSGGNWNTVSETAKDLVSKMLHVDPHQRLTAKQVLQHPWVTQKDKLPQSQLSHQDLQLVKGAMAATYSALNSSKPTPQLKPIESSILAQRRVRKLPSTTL

[34] = AUC (0 to infinity) in Sprague-Dawley rat at 1 mg/kg, iv by LC-MS/MS analysis; format: ADME, organism-based; conditions: in vivo
MCF7 [35] = experiment: Antiproliferative activity against human MCF7 cells incubated for 48 hrs by CCK-8 method; format: functional, cell-based; conditions: MCF7, 48 h
MCF-10A = experiment: Antiproliferative activity against human MCF-10A cells incubated for 48 hrs by CCK-8 method; format: functional, cell-based

SMILES: O=C(Nc1cc(C(F)(F)F)cc(C(F)(F)F)c1)N[C@@H](Cc1ccccc1)Cn1c[n+](Cc2ccc3ccccc3c2)c2ccccc21.[Br-]
- Activity (MCF7 [1]): Active
- Activity (MCF7 [2]): Active
- Activity (4T1 [3]): Active
- Activity [4]: Non-toxic
- Activity (MCF7 [5]): 7.8%
- Activity (4T1 [6]): inactive
- Activity (MCF7 [7]): Active
- bioavailability [8]: 37.1%
- Activity (MCF7 [9]): 14.8%
- Activity (4T1-Luc): Active
- Activity (MCF7 [10]): Active
- Activity (4T1 [11]): Active
- Activity (4T1 [12]): Active
- Activity [13]: Non-toxic
- Activity (MCF7 [14]): Not active; Compound Showed Less Sensitivity Response
- Activity (MCF7 [15]): Active
- Activity (MCF7 [16]): inactive
- Activity (MCF7 [17]): Active
- Activity [18]: Non-toxic
- Activity (MCF7 [19]): Active
- AUC(0-t) [20]: 1040 ng·h/mL
- Activity (4T1 [21]): Active
- Activity [22]: Non-toxic
- inhibition (MCF7 [23]): Dose-dependent-effect
- Activity (4T1 [24]): Active
- Activity (MCF7 [25]): 4.92%
- Activity (MCF7 [26]): 11.6%
- AUC(0-t) [27]: 3910 ng·h/mL
- Activity (MCF7 [28]): Active
- inhibition (MCF7 [29]): inactive
- Cmax [30]: 534 ng/mL
- inhibition (MCF7 [31]): Active
- inhibition in vivo at 50 mg/kg (4T1 [32]): 54.9%
- IC50 [33]: 674 nM
- AUC(0-inf) [34]: 1100 ng·h/mL
- IC50 (MCF7 [35]): 670 nM
- IC50 (MCF-10A): > 10000 nM
